Reference: US20250223268A1, “4-Methylsulfonylbenzamide Compound, Preparation Method, Herbicidal Composition And Use” (Jiangsu Flag Chemical Industry Co., Ltd., priority 2022, published 2025)

Key:
Test in all cases: Greenhouse herbicidal activity assay, post-emergence
Type in all cases: in vivo
Conditions in all cases: Post-emergence test, rate 150 g a.i./hm^2; grade by fresh weight inhibition rate
Cyperus iria = test system: Cyperus iria
Outline: (§1)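 Letter grades (A: ≥80% to 100%; C: ≥40% to <60%; E: <20%) express fresh weight inhibition recorded 14-21 days post-spray. Weeds were treated on the leaves once they reached 3-6 leaves in chamber-grown pots, allowed to dry naturally, then kept in the chamber.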

Eclipta prostrata = test system: Eclipta prostrata
Outline: as §1

Leptochloa chinensis = test system: Leptochloa chinensis
Outline: as §1

Digitaria sanguinalis = test system: Digitaria sanguinalis
Outline: as §1

Echinochloa crusgalli = test system: Echinochloa crusgalli
Outline: as §1

| SMILES | Control efficacy grade, Cyperus iria (Cyperus iria) | Control efficacy grade, Eclipta prostrata (Eclipta prostrata) | Control efficacy grade, Leptochloa chinensis (Leptochloa chinensis) | Control efficacy grade, Digitaria sanguinalis (Digitaria sanguinalis) | Control efficacy grade, Echinochloa crusgalli (Echinochloa crusgalli) |
| --- | --- | --- | --- | --- | --- |
| CCCSc1c(S(C)(=O)=O)ccc(C(=O)Nc2ncnn2C)c1Cl [Compound 2-1] | A (Fresh weight inhibition rate≥80% to 100%) | A (Fresh weight inhibition rate≥80% to 100%) | A (Fresh weight inhibition rate≥80% to 100%) | A (Fresh weight inhibition rate≥80% to 100%) | A (Fresh weight inhibition rate≥80% to 100%) |
| Cn1nnnc1NC(=O)c1ccc(S(C)(=O)=O)c([S+]([O-])C2CC2)c1Cl (racemic) [Compound 1-33] | A (Fresh weight inhibition rate≥80% to 100%) | A (Fresh weight inhibition rate≥80% to 100%) | A (Fresh weight inhibition rate≥80% to 100%) | A (Fresh weight inhibition rate≥80% to 100%) | A (Fresh weight inhibition rate≥80% to 100%) |
| CCC[S+]([O-])c1c(S(C)(=O)=O)ccc(C(=O)Nc2nnc(C)o2)c1Cl (racemic) [Compound 3-2] | A (Fresh weight inhibition rate≥80% to 100%) | A (Fresh weight inhibition rate≥80% to 100%) | A (Fresh weight inhibition rate≥80% to 100%) | A (Fresh weight inhibition rate≥80% to 100%) | A (Fresh weight inhibition rate≥80% to 100%) |
| Cn1ncnc1NC(=O)c1ccc(S(C)(=O)=O)c([S+]([O-])CC2CC2)c1Cl (single isomer, unassigned) [Compound 2-30] | A (Fresh weight inhibition rate≥80% to 100%) | A (Fresh weight inhibition rate≥80% to 100%) | A (Fresh weight inhibition rate≥80% to 100%) | A (Fresh weight inhibition rate≥80% to 100%) | A (Fresh weight inhibition rate≥80% to 100%) |
| Cc1nnc(NC(=O)c2ccc(S(C)(=O)=O)c([S+]([O-])C3CCCCC3)c2Cl)o1 (racemic) [Compound 3-93] | A (Fresh weight inhibition rate≥80% to 100%) | A (Fresh weight inhibition rate≥80% to 100%) | A (Fresh weight inhibition rate≥80% to 100%) | A (Fresh weight inhibition rate≥80% to 100%) | A (Fresh weight inhibition rate≥80% to 100%) |
| CC(C)[S+]([O-])c1c(S(C)(=O)=O)ccc(C(=O)Nc2nnc(C3CC3)o2)c1Cl (single isomer, unassigned) [Compound 3-623] | A (Fresh weight inhibition rate≥80% to 100%) | A (Fresh weight inhibition rate≥80% to 100%) | A (Fresh weight inhibition rate≥80% to 100%) | A (Fresh weight inhibition rate≥80% to 100%) | A (Fresh weight inhibition rate≥80% to 100%) |
| CCC(C)Sc1c(S(C)(=O)=O)ccc(C(=O)Nc2nnco2)c1Cl (racemic) [Compound 3-282] | A (Fresh weight inhibition rate≥80% to 100%) | A (Fresh weight inhibition rate≥80% to 100%) | A (Fresh weight inhibition rate≥80% to 100%) | B (Fresh weight inhibition rate≥260% to <80%) | A (Fresh weight inhibition rate≥80% to 100%) |
| C=CCSc1c(S(C)(=O)=O)ccc(C(=O)Nc2nnc(C)o2)c1Cl [Compound 3-112] | A (Fresh weight inhibition rate≥80% to 100%) | A (Fresh weight inhibition rate≥80% to 100%) | A (Fresh weight inhibition rate≥80% to 100%) | A (Fresh weight inhibition rate≥80% to 100%) | A (Fresh weight inhibition rate≥80% to 100%) |
| C#CCSc1c(S(C)(=O)=O)ccc(C(=O)Nc2nnc(C)o2)c1Cl [Compound 3-147] | B (Fresh weight inhibition rate≥260% to <80%) | A (Fresh weight inhibition rate≥80% to 100%) | A (Fresh weight inhibition rate≥80% to 100%) | A (Fresh weight inhibition rate≥80% to 100%) | B (Fresh weight inhibition rate≥260% to <80%) |
| Cn1nnnc1NC(=O)c1ccc(S(C)(=O)=O)c([S+]([O-])C2CCC2)c1Cl (racemic) [Compound 1-38] | A (Fresh weight inhibition rate≥80% to 100%) | A (Fresh weight inhibition rate≥80% to 100%) | B (Fresh weight inhibition rate≥260% to <80%) | A (Fresh weight inhibition rate≥80% to 100%) | A (Fresh weight inhibition rate≥80% to 100%) |
